Read-outs that look alike come from different tables or passages of the source.
Legend:
[1] = serum cardiac glycoside levels in patients, measured with the present assay; assay type: in vivo, human; settings: 21 patients with arrhythmias on digoxin therapy; serum drawn at least 6 hours after last dose
Procedure: Digoxin is extracted from patient serum or from plasma as follows: 5ml of serum or plasma is shaken for 30 seconds with 30ml of Chloroform in a 40ml glass-stoppered conical centrifuge tube, and centrifuged for 2 minutes at 1800 rpm (750 × g at tip). The milky top layer and fatty plug are removed with a teflon-tipped aspirator. The bottom chloroform layer is decanted into another 40ml centrifuge tube and evaporated to dryness in 3 to 5 minutes on a Buchler Evapomixer at 60°C. under vacuum. The digoxin thus extracted is rinsed down to the bottom of the tube with 1ml of ethyl ether and evaporated to dryness in a 50°C. water bath under a stream of filtered air.
. The sample is mixed on a Vari-whirl vortex mixer for 20 seconds at full speed and centrifuged for 3 minutes at 1800 rpm. The top toluene layer is removed with a narrow, drawn-out pasteur pipet, and discarded. Duplicate 50μl tris aliquots of the bottom tris layer are then assayed in the same manner as for the standards described in Example 3. No quench correction is required. Only raw 1 or 2 minute counts need be used and the counts of duplicate aliquots are averaged. The amount of digoxin found in each aliquot is obtained by comparison with that day's standard curve.
Serum digoxin levels were measured in 83 nontoxic patients on the medical wards of the Los Angeles County-University of Southern California Medical Center. […]

antibody = settings: cited from earlier work
[2] = tested on: binding enzyme exhibiting Na-K-ATPase activity; experiment: enzymatic isotope displacement assay: displacement of H^3 ouabain from the binding enzyme; set-up: species or system guinea pig; settings: 0, 2.5, 5, 10, 20 Ng (or ug of digitalis leaf) per 50 μl; FIG. 4
Procedure: The serum extract and aqueous buffered mixtures having known concentrations of cardiac glycosides (hereinafter referred to as standard samples) are incubated with aqueous buffered mixtures containing the novel binding enzyme of the present invention in the presence of radioactive isotope cardiac glycoside, magnesium and sodium ions, ATP a buffering agent and optionally, but preferably, a heavy metal chelating agent. It is preferably that potassium be eliminated from the reagents to optimize the sensitivity of the assay. Ten microliters of the extract are sufficient for the incubation, although smaller and larger amounts may be employed. The binding enzyme is prepared by reacting a binding enzyme precursor or binding material (described below) with a high energy phosphate compound such as adenosine triphosphate (ATP), adenosine diphosphate (ADP), guanosine triphosphate (GTP), guanosine diphosphate (GDP) and the like. The reaction is preferably conducted in the presence of magnesium and/or sodium, preferably both. The reaction is conveniently carried out in the incubation or displacement step reaction mixture. About 4 to 100 micromoles of the high energy phosphate compound are reacted with each amount of the binding enzyme precursor prepared from one gram of animal tissue; although lesser or greater amounts of a high energy phosphate compound may be used. […]
In the above assay, the binding enzyme binds tritiated ouabain in the presence of Na and Mg. […] After centrifugation, the unbound H^3 ouabain in the supernatant fraction is counted by liquid scintillation and compared with known counts for standard concentrations of digoxin. An increase in supernatant radioactivity indicates uptake of digoxin or other cardiac glycoside at the expense of tritiated ouabain. […]
A solution of 250,000 Ng (nanograms) of digoxin per ml of methanol is gravimetrically prepared. […] 50ul of each supernatant is then counted by liquid scintillation. […]

[3] = cited from earlier work
clinical = assay type: in vivo, human
Procedure: A person was admitted to this center 3 hours after having ingested 100 tablets of 0.1mg of digitoxin. They had vomited once. Physical examination was unrevealing. […] The P-R interval was 0.24 seconds. Serum was obtained for assay, urine collection was begun, and vigorous gastric lavage was instituted.
Apparent serum digitoxin on admission was 51.0 Ng/ml, a value close to that of another patient whose atrial fibrillation was under satisfactory control on digitoxin 0.1mg/day. […] The results from both the serum and gastric material were in the hands of ward personnel within 3 hours.
On the basis of this assay information, especially the findings from the gastric material, it was decided by those caring for the patient that they might just have passed the stage where serum levels were highest. Since they were not severe, and since only mild AV block was present, it was felt that they might do well subsequently without further intervention. They were carefully watched, and in fact recovered without further therapy. […]. Four control urine specimens and six specimens at gastric contents from persons not receiving any digitalis gave negative results.

[4] = cited from earlier work; remark: listed apart in the source

In the case of `C[C@H]1O[C@@H](O[C@H]2[C@@H](O)C[C@H](O[C@H]3[C@@H](O)C[C@H](O[C@H]4CC[C@@]5(C)[C@H](CC[C@@H]6[C@@H]5C[C@@H](O)[C@]5(C)[C@@H](C7=CC(=O)OC7)CC[C@]65O)C4)O[C@@H]3C)O[C@@H]2C)C[C@H](O)[C@@H]1O` [digoxin], the “average serum level (1 S.D.)” value [1] is listed as 3.10 ± 0.76 ng/mL, the “specificity of the immunoassay for digoxin over digitoxin” value (antibody) is listed as 10 fold and the “average toxic level by immunoassay” value (antibody; toxic patients, serum digoxin) is listed as 3.3 ± 1.5 ng/mL. The “displaced H^3 ouabain from the enzyme (potency)” value (“displaced H^3 ouabain” below) [2] was “approximately equal potency”, the “Risk of Arrhythmias” value ([3]; 1.4 nanograms per ml of blood serum) was “about 10%” and the “Risk of Arrhythmias” value ([3]; 2 nanograms per ml of blood serum) was “about 25%”. For the same molecule, the “Risk of Arrhythmias” value ([3]; 2.9 nanograms per ml of blood serum) was “about 50%”, the “Risk of Arrhythmias” value ([3]; 4 nanograms per ml of blood serum) was “about 66%” and the “Risk of Arrhythmias” value ([3]; 5 nanograms per ml of blood serum) was “about 80%”.

In the case of `C[C@@H]1O[C@@H](O[C@H]2C[C@@H](O)[C@]3(CO)[C@H]4[C@H](O)C[C@]5(C)[C@@H](C6=CC(=O)OC6)CC[C@]5(O)[C@@H]4CC[C@]3(O)C2)[C@H](O)[C@H](O)[C@H]1O` [ouabain], the “displaced H^3 ouabain” value [2] is reported as “approximately equal potency”.

In the case of `C[C@H]1O[C@@H](O[C@H]2[C@@H](O)C[C@H](O[C@H]3[C@@H](O)C[C@H](O[C@H]4CC[C@@]5(C)[C@H](CC[C@@H]6[C@@H]5CC[C@]5(C)[C@@H](C7=CC(=O)OC7)CC[C@]65O)C4)O[C@@H]3C)O[C@@H]2C)C[C@H](O)[C@@H]1O` [digitoxin], the “displaced H^3 ouabain” value [2] is reported as “approximately equal potency”, the “cardiac glycosides in gastric lavage material, equivalent of digitoxin” value (clinical; aliquot of 4 liters of lavage material) is reported as 1.2 µg/mL and the concentration at 3 h (clinical; human, in vivo, po, 3 hours after ingestion of 100 tablets of 0.1 mg, read-out: apparent serum digitoxin on admission) is reported as 51 ng/mL. The concentration at 24 h (clinical; human, in vivo, po, first subsequent day, read-out: subsequent daily serum digitoxin level) was 41 ng/mL, the concentration at 48 h (clinical; human, in vivo, po, second subsequent day, read-out: subsequent daily serum digitoxin level) was 31.6 ng/mL and the concentration at 24 h (clinical; human, in vivo, po, spot urine, first of the two days after admission, read-out: apparent digitoxin concentration in urine) was 848 ng/mL. For the same molecule, the concentration at 48 h (clinical; human, in vivo, po, spot urine, second of the two days after admission, read-out: apparent digitoxin concentration in urine) was 512 ng/mL, the concentration at 72 h (clinical; human, in vivo, po, third subsequent day, read-out: subsequent daily serum digitoxin level) was 24.4 ng/mL and the “amount removed by lavage” value (clinical; of the 10 mg ingested) was 4.8 mg. For the same molecule, the “reported therapeutic serum levels relative to those of digoxin” value [4] was 10 to 20 times.

From patent publication US3959077A (priority 1972, dated 1976)
